Data: PubChem BioAssay AID330 (DTP/NCI, 2004)
Values joined by “and” are separate entries in the source; they are usually repeats but may differ in a detail not shown here. Identical values can stand only once. Toxic doses and inconclusive results are not listed. How the source made its calls: active means survival T/C of 150% or more; inactive means T/C below 125% in these data.

Tested on: P388 leukemia ip, CD2F1 mice, survival T/C
Experiment: NCI In Vivo Anticancer Drug Screen. Data for tumor model P388 Leukemia (intraperitoneal) in CD2F1 (CDF1) mice
Details: endpoint: median survival time, higher = longer survival
How it was run: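 Mice carrying the transplanted tumor received test compound or vehicle. Survival was recorded in each group, and the value is the treated-group measurement divided by that of the vehicle-treated control group.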

[1] = dose: 200.0 mg/kg/injection, schedule: Q01DX009 (ip), vehicle: Klucel (hydroxypropylcellulose) (HPC)
[2] = dose: 50.0 mg/kg/injection, schedule: Q01DX009 (ip), vehicle: Klucel (hydroxypropylcellulose) (HPC)
[3] = dose: 100.0 mg/kg/injection, schedule: Q01DX009 (ip), vehicle: Klucel (hydroxypropylcellulose) (HPC)
[4] = dose: 60.0 mg/kg/injection, schedule: Q01DX005 (ip), vehicle: Klucel (hydroxypropylcellulose) (HPC)
[5] = dose: 120.0 mg/kg/injection, schedule: Q01DX005 (ip), vehicle: Klucel (hydroxypropylcellulose) (HPC)
[6] = dose: 240.0 mg/kg/injection, schedule: Q01DX005 (ip), vehicle: Klucel (hydroxypropylcellulose) (HPC)
[7] = dose: 50.0 mg/kg/injection, schedule: Q01DX005 (ip), vehicle: saline with Tween-80
[8] = dose: 100.0 mg/kg/injection, schedule: Q01DX005 (ip), vehicle: saline with Tween-80
[9] = dose: 200.0 mg/kg/injection, schedule: Q01DX005 (ip), vehicle: saline with Tween-80
[10] = dose: 12.5 mg/kg/injection, schedule: Q01DX009 (ip), vehicle: saline with Tween-80
[11] = dose: 25.0 mg/kg/injection, schedule: Q01DX009 (ip), vehicle: saline with Tween-80
[12] = dose: 50.0 mg/kg/injection, schedule: Q01DX009 (ip), vehicle: saline with Tween-80
[13] = dose: 60.0 mg/kg/injection, schedule: Q01DX005 (ip), vehicle: saline with Tween-80
[14] = dose: 120.0 mg/kg/injection, schedule: Q01DX005 (ip), vehicle: saline with Tween-80
[15] = dose: 15.0 mg/kg/injection, schedule: Q01DX005 (ip), vehicle: Klucel (hydroxypropylcellulose) (HPC)
[16] = dose: 30.0 mg/kg/injection, schedule: Q01DX005 (ip), vehicle: Klucel (hydroxypropylcellulose) (HPC)
[17] = dose: 50.0 mg/kg/injection, schedule: Q01DX005 (ip), vehicle: Klucel (hydroxypropylcellulose) (HPC)
[18] = dose: 100.0 mg/kg/injection, schedule: Q01DX005 (ip), vehicle: Klucel (hydroxypropylcellulose) (HPC)
[19] = dose: 200.0 mg/kg/injection, schedule: Q01DX005 (ip), vehicle: Klucel (hydroxypropylcellulose) (HPC)
[20] = dose: 12.5 mg/kg/injection, schedule: Q01DX005 (ip), vehicle: Klucel (hydroxypropylcellulose) (HPC)
[21] = dose: 25.0 mg/kg/injection, schedule: Q01DX005 (ip), vehicle: Klucel (hydroxypropylcellulose) (HPC)

Measured: T/C

COC(=O)OCC#Cc1ccccc1
inactive: dose: 50.0 mg/kg/injection, schedule: Q04DX002 (ip), vehicle: saline with Tween-80 100 % of control | dose: 100.0 mg/kg/injection, schedule: Q04DX002 (ip), vehicle: saline with Tween-80 108 % of control | dose: 200.0 mg/kg/injection, schedule: Q04DX002 (ip), vehicle: saline with Tween-80 112 % of control

CC(C)CCCC(C)C1CCC2C3CCC4CC(=O)C(C5(O)C(=O)Nc6ccccc65)CC4(C)C3CCC12C (stereo not drawn)
inactive: dose: 6.25 mg/kg/injection, schedule: Q01DX009 (ip), vehicle: Klucel (hydroxypropylcellulose) (HPC) 95 % of control | dose: 12.5 mg/kg/injection, schedule: Q01DX009 (ip), vehicle: Klucel (hydroxypropylcellulose) (HPC) 95 % of control | [1] 90 % of control

O=C(O)CC(=O)O.[NH-]C1CCCC([NH-])C1.[Pt+2] (stereo not drawn)
active: dose: 12.5 mg/kg/injection, schedule: Q04DX002 (ip), vehicle: saline with Tween-80 157 % of control | dose: 25.0 mg/kg/injection, schedule: Q04DX002 (ip), vehicle: saline with Tween-80 180 % of control

COC(=O)[C@@]12OC[C@]34[C@H]([C@@H](O)[C@@H]1O)[C@@]1(C)CC(=O)C(O)=C(C)[C@@H]1C[C@H]3OC(=O)[C@H](OC(=O)/C=C(\C)C(C)CO)[C@@H]24 (stereo partly drawn)
inactive: dose: 0.5 mg/kg/injection, schedule: Q01DX009 (ip), vehicle: saline + alcohol 115 % of control

CCCCCCCCCCOC(=O)c1ccccc1
inactive: [2] 98 % of control | [3] 93 % of control | [1] 98 % of control

COC(=O)N1Cc2cc3ccccc3nc2C1C (stereo not drawn)
inactive: [4] 101 % of control | [5] 104 % of control | [6] 109 % of control

Cn1c2ccccc2c(=O)c2cc(NC(=O)CCC(=O)Nc3ccc4c(c3)c(=O)c3ccccc3n4C)ccc21
inactive: [7] 99 % of control | [8] 97 % of control | [9] 97 % of control

c1ccc2cc3c4c(ccc3cc2c1)CCCCCC4
inactive: [10] 86 % of control | [11] 112 % of control | [12] 105 % of control

COc1ccc2n[se]nc2c1
inactive: [13] 93 % of control | [14] 93 % of control

O=C(NCCCC1NC(=O)/C(=C(O)/C=C/C2CCCCC2)C1=O)OCc1ccccc1 (stereo not drawn)
inactive: [7] 100 % of control | [8] 95 % of control | [9] 100 % of control

O=C1OCC2C(=O)OCC12 (stereo not drawn)
inactive: dose: 4.0 mg/kg/injection, schedule: Q01DX009 (ip), vehicle: saline with Tween-80 113 % of control and 87 % of control | dose: 8.0 mg/kg/injection, schedule: Q01DX009 (ip), vehicle: saline with Tween-80 108 % of control and 109 % of control and 96 % of control | dose: 16.0 mg/kg/injection, schedule: Q01DX009 (ip), vehicle: saline with Tween-80 100 % of control and 109 % of control and 118 % of control | dose: 32.0 mg/kg/injection, schedule: Q01DX009 (ip), vehicle: saline with Tween-80 104 % of control and 124 % of control and 95 % of control | dose: 50.0 mg/kg/injection, schedule: Q04DX003 (ip), vehicle: saline with Tween-80 99 % of control | dose: 64.0 mg/kg/injection, schedule: Q01DX009 (ip), vehicle: saline with Tween-80 100 % of control and 109 % of control and 124 % of control | dose: 100.0 mg/kg/injection, schedule: Q04DX003 (ip), vehicle: saline with Tween-80 102 % of control | dose: 128.0 mg/kg/injection, schedule: Q01DX009 (ip), vehicle: saline with Tween-80 113 % of control | dose: 200.0 mg/kg/injection, schedule: Q04DX003 (ip), vehicle: saline with Tween-80 105 % of control | dose: 400.0 mg/kg/injection, schedule: Q04DX003 (ip), vehicle: saline with Tween-80 99 % of control

O=C(CCCl)Nc1cccc(CCC(=O)c2ccccc2NC(=O)CCCl)c1
inactive: [13] 89 % of control | [14] 93 % of control | dose: 240.0 mg/kg/injection, schedule: Q01DX005 (ip), vehicle: saline with Tween-80 88 % of control

C=C1C(=O)OC2/C=C(/CO)CC/C=C(/C=O)CC(O)C12 (stereo not drawn)
inactive: dose: 1.89 mg/kg/injection, schedule: Q01DX005 (ip), vehicle: saline + Tween-80 + alcohol 101 % of control | dose: 3.75 mg/kg/injection, schedule: Q01DX005 (ip), vehicle: saline + Tween-80 + alcohol 100 % of control | dose: 7.5 mg/kg/injection, schedule: Q01DX005 (ip), vehicle: saline + Tween-80 + alcohol 101 % of control | dose: 15.0 mg/kg/injection, schedule: Q01DX005 (ip), vehicle: saline + Tween-80 + alcohol 99 % of control

CCn1c(Cl)c(/C=N/NS(=O)(=O)c2ccc(C)cc2)c2cccc(/C=N\NS(=O)(=O)c3ccc(C)cc3)c21
inactive: dose: 50.0 mg/kg/injection, schedule: Q01DX001 (ip), vehicle: Klucel (hydroxypropylcellulose) (HPC) 99 % of control | dose: 100.0 mg/kg/injection, schedule: Q01DX001 (ip), vehicle: Klucel (hydroxypropylcellulose) (HPC) 96 % of control

O=C(CC(=O)c1ccccc1)c1ccccc1.[Tl]
inactive: dose: 6.25 mg/kg/injection, schedule: Q01DX009 (ip), vehicle: saline with Tween-80 100 % of control | [10] 98 % of control

CN(CS(=O)(=O)c1ccccc1)CS(=O)(=O)c1ccccc1
inactive: [4] 110 % of control | [5] 105 % of control | [6] 108 % of control

CCOC(=O)C1=C(O)C(=O)NC1c1ccccc1 (stereo not drawn)
inactive: [15] 111 % of control | [16] 102 % of control | [4] 102 % of control and 107 % of control

CCN(CC)c1nc(Cl)nc(Nc2ccc3cc(-c4ccccc4)c(=O)oc3c2)n1
inactive: [17] 98 % of control | [18] 95 % of control | [19] 104 % of control

CC1=C(C(=O)Nc2ccccc2Cl)C(c2cccc([N+](=O)[O-])c2)C(C(=O)Nc2ccccc2Cl)=C(C)N1
inactive: [15] 93 % of control | [16] 90 % of control | [4] 88 % of control

CCOC(=O)c1cnc2cc(F)ccc2c1Nc1ccc2c(c1)OCO2
inactive: [4] 99 % of control | [5] 97 % of control | [6] 105 % of control

CC1C=CC(C)N(C(N)=O)N1C(N)=O (stereo not drawn)
inactive: dose: 100.0 mg/kg/injection, schedule: Q01DX001 (ip), vehicle: saline with Tween-80 98 % of control | dose: 200.0 mg/kg/injection, schedule: Q01DX001 (ip), vehicle: saline with Tween-80 100 % of control | dose: 400.0 mg/kg/injection, schedule: Q01DX001 (ip), vehicle: saline with Tween-80 91 % of control

Cn1c(-c2ccccc2)nc(-c2ccccc2)[n+]1[O-]
inactive: [4] 102 % of control | [5] 96 % of control | [6] 95 % of control

C=C1C2CCC3C4(C)CCCC(C)(C(=O)O)C4CCC3(C2)C1OC(=O)/C(C)=C/C (stereo not drawn)
inactive: [20] 102 % of control | [21] 96 % of control | [17] 90 % of control | [7] 99 % of control | [18] 87 % of control | [8] 95 % of control | [9] 95 % of control | dose: 400.0 mg/kg/injection, schedule: Q01DX005 (ip), vehicle: saline with Tween-80 95 % of control

CCN(CC)c1ccc2c(c1)Oc1cc(N(CC)CC)ccc1C21c2ccccc2C(=O)N1c1ccccc1
inactive: [17] 98 % of control | [18] 99 % of control | [19] 103 % of control

O=C1CCSC(=S)N1c1ccc(Br)c(Cl)c1
inactive: dose: 50.0 mg/kg/injection, schedule: Q01DX009 (ip), vehicle: suspension in saline 116 % of control | dose: 100.0 mg/kg/injection, schedule: Q01DX009 (ip), vehicle: suspension in saline 116 % of control | dose: 200.0 mg/kg/injection, schedule: Q01DX009 (ip), vehicle: suspension in saline 106 % of control

Cc1cnc(SC2C3CC4CC(C3)CC2C4)c(C)c1 (stereo not drawn)
inactive: [2] 99 % of control | [3] 94 % of control | [1] 88 % of control

C=C(C)C(=NC(C)(C)C)Nc1ccc(Cl)cc1
inactive: [20] 104 % of control and 106 % of control | [21] 106 % of control and 109 % of control | [11] 98 % of control and 100 % of control | [17] 110 % of control and 116 % of control and 123 % of control | [12] 100 % of control and 102 % of control and 109 % of control | [18] 112 % of control and 116 % of control and 120 % of control | dose: 100.0 mg/kg/injection, schedule: Q01DX009 (ip), vehicle: saline with Tween-80 109 % of control and 111 % of control and 119 % of control | dose: 200.0 mg/kg/injection, schedule: Q01DX009 (ip), vehicle: saline with Tween-80 118 % of control
